Measured values reported in patent US20100323990A1, “SHIP 1 MODULATOR PRODRUGS” (THE UNIVERSITY OF BRITISH COLUMBIA, priority 2006, published 2010).

Experiments:
SHIP C2 domain = test: Scintillation proximity assay, C2 domain; type: binding; conditions: C2 domain 10 nM on SPA beads
Procedure: (§1) Compound 100 was radiolabelled with tritium by GE Healthcare (Piscataway, N.J.) to a specific activity of 42 Ci/mmole. Copper chelate (His-Tag) YSi SPA Scintillation Beads (GE ealthcare, Piscataway, N.J.) were diluted in 0.25% BSA/TBS to 1.5 mg/mL and recombinant, His6-tagged protein added at the indicated concentrations: wild-type (1 pM), ΔC2 SHIP enzyme (1 pM) or C2 domain (10 nM). Protein was allowed to bind 1 h at 23° C., and 250 μg of beads were aliquoted per well of a 96-well plate. 5 μCi of [^3H]-Compound 100 was added per well, the plate gently agitated for 30 min and the amount of bead associated radioactivity quantified by counting in a Wallac BetaPlate plate scintillation counter.
(§2) Isolated recombinant, His6-tagged C2 domain was expressed and its PI-3,4-P2 binding ability was determined using protein lipid overlay assays. Purified C2 domain was incubated with membrane strips spotted with PI-3,4-P2 and bound protein detected using an anti-His6 antibody. As shown in FIG. 11C the C2 domain bound PI-3,4-P2 and this binding was inhibited by Compound 100, consistent with both Compound 100 and PI-3,4-P2 interacting with the C2 domain at a common binding site.

ΔC2 SHIP [1] = target: T1, ΔC2 SHIP (Homo sapiens, UniProt Q92835, DEL725-863); test: Scintillation proximity assay, SHIP lacking its C2 domain; type: binding; conditions: SPA beads
T1 construct: His6; made in house; host or cells: mammalian expression vector pME18S
T1 sequence (Q92835 with tags, fused parts or gaps DEL725-863): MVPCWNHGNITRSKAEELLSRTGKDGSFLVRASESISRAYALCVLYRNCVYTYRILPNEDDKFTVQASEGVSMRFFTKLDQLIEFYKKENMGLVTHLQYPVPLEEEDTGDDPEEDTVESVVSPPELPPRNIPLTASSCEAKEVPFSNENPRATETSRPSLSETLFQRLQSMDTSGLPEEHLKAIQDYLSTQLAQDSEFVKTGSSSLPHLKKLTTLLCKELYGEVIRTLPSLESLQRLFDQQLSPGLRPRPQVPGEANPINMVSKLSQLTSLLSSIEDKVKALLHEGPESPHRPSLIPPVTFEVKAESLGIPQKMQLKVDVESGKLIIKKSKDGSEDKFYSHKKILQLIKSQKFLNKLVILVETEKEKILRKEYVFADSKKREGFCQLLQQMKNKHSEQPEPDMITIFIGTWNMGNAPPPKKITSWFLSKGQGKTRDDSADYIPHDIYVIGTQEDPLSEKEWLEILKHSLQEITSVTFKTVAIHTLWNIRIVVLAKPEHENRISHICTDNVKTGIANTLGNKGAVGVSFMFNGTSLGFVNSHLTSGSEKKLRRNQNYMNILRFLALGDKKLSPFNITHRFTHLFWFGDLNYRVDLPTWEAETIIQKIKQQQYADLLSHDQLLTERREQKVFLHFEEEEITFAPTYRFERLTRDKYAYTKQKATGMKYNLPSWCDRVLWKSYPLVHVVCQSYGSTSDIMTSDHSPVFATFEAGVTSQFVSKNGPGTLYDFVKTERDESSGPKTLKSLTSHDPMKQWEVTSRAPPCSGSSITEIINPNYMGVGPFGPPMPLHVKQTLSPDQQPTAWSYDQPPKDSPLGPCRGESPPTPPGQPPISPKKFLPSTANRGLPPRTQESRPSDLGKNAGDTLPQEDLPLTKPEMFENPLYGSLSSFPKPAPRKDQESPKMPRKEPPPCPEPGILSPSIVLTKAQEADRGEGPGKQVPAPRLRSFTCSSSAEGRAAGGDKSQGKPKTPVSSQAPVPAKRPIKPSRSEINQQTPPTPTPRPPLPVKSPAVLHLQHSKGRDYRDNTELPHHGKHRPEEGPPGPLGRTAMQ
Procedure: as §1, §2

ΔC2 SHIP [2] = target: T1, ΔC2 SHIP; test: SHIP enzyme assay with C2 domain deleted SHIP; type: biochemical; conditions: PI-3,4-P2 20 μM, Compound 100 3 μM, 30 μM IP4
From the text: A His6 tagged SHIP ΔC2 domain deletion mutant (deleting residues 725 to 863) in the mammalian expression vector pME18S was generated by a standard PCR-based methodology. An N-terminal His6 C2 domain construct was also generated by PCR inserted into the pET28C bacterial expression vector using EcoRI and NdeI restriction sites.
The allosteric regulation of enzymes has remained under-appreciated primarily because allosteric effectors are not easy to find. The molecular mechanism by which Compound 100 activated SHIP was investigated, first by performing classical enzyme kinetic analysis of its phosphatase activity. Activity measurements were performed with substrate concentrations from 10-100 μM.
The SHIP protein contains a C2 domain located at the carboxyterminal end of its phosphatase domain. […] SHIP lacking its the C2 domain (ΔC2 SHIP) was prepared.

Cc1cc(O)cc2c1[C@]1(C)CCC3C(C)(C)CCC[C@]3(C)[C@H]1C2 (stereo partly drawn) [Compound 100]
binding of [3H]-Compound 100 to C2 domain (SHIP C2 domain): directly bind the C2 domain | binding of [3H]-Compound 100 to SHIP lacking its C2 domain (ΔC2 SHIP [1]): not to SHIP lacking its C2 domain | enhancement of ΔC2 SHIP activity (ΔC2 SHIP [2]): could not be enhanced
